Experiments:
[1] = biological target: T1, GLUT1 (Homo sapiens, UniProt P11166); experiment: [3H]2-DG uptake into LNCaP cells overexpressing GLUT1; format: cell-based; details: for IC50: LNCaP cells overexpressing GLUT1, read-out: IC50 in inhibiting GLUT1-mediated [3H]2-DG uptake; for inhibition at 5 µM: LNCaP cells transfected with GLUT1, 30 min
T1 construct: The full length GLUT1, GLUT4, and GLUT9 ORF cDNA clones were purchased from Addgene; EGFP (from the pEGFP-N2 vector); host or cells: LNCaP
T1 sequence (P11166 1-492): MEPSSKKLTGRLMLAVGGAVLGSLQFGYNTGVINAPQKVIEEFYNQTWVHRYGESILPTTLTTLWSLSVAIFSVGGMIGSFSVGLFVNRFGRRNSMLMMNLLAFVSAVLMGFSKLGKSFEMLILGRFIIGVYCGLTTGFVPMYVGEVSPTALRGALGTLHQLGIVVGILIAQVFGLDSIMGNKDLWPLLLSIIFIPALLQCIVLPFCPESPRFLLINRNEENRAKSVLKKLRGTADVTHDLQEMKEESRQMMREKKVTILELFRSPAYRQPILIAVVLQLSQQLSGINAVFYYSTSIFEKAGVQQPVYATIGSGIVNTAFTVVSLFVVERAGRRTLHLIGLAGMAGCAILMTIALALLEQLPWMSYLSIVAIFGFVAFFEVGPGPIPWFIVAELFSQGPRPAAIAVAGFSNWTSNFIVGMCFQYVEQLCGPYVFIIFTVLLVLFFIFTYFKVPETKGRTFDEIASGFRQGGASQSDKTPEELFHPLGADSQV
Description: (§1) As information regarding the expression pattern of individual GLUT members in LNCaP cells was lacking, quantitative real time polymerase chain reaction (qRT-PCR) was used to assess the mRNA levels of the hypoxia-responsive GLUT1 and GLUT3, and three other representative GLUT members, including the class I GLUT2 and GLUT4 and the class II GLUT9. Among these five members, LNCaP cells expressed GLUT1 and, to a much lesser extent, GLUT9, while the mRNA levels of GLUTs2-4 were negligible (FIG. 3B). To examine the isoform specificity of these inhibitors, LNCaP cells were ectopically transfected with plasmids encoding GLUT1, GLUT3, GLUT4, or GLUT9 vis-à-vis the pCMV control vector so that the increased glucose uptake in GLUT-transfected cells relative to pCMV control cells was indicative of the activity of the ectopically expressed GLUT protein.
(§2) Glucose Uptake Assay. LNCaP cells were seeded in six-well plates (3×10^5 cells/well) for 24 h. Cells were washed twice with Krebs-Ringer phosphate buffer (126 mM NaCl, 2.5 mM KCl, 25 mM NaHCO3, 1.2 mM NaH2PO4, 1.2 mM MgCl2, 2.5 mM CaCl2, pH 7.4) and were then treated with individual agents in Krebs-Ringer phosphate buffer. After 1.5 h, glucose uptake was initiated by adding 1 mL Krebs-Ringer buffer containing […] [^3H]2-DG (PerkinElmer Life Science) and […] non-radioactive 2-DG and was terminated by washing with cold PBS. The cells were lysed in […] lysis buffer (10 mM Tris-HCl pH 8.0, 0.1% SDS) and aliquots were taken for measurement of radioactivity using a scintillation counter (Beckman LS6500).
Plasmid Construction, Transient Transfection and Immunoblotting. The full length GLUT1, GLUT4, and GLUT9 ORF cDNA clones were purchased from Addgene (Cambridge, Mass.) and GLUT3 ORF cDNA was purchased from Origene Technologies (Rockville, Md.). GLUT1, GLUT3, and GLUT9 were subcloned into the HindIII/SalI sites and GLUT4 was subcloned into the EcoRI/SalI sites of pEGFP-N2 expression vector (Clontech, Palo Alto, Calif.). Transfections were performed by electroporation using Nucleofector kit R of the Amaxa Nucleofector system (Lonza, Walkersville, Md.) according to the manufacturer's protocol. Immunoblotting was performed using cells lysates harvested with SDS lysis buffer (1% SDS, 50 mM Tris-HCl pH 8.0, 10 mM EDTA) containing 1× protease inhibitor cocktail (Sigma) and phosphatase inhibitor and were electrophoresed in 8˜12% SDS polyacrylamide gels and then transferred onto nitrocellulose membranes. After blotting in 5% nonfat dry milk, the membranes were incubated with primary antibodies at 1:1,000 dilution in TBS-Tween 20 overnight at 4° C., and then secondary antibodies conjugated with horseradish peroxidase at 1:5,000 dilution in TBS-Tween 20 for 1 hour at room temperature. […]

[2] = biological target: T2, GLUT3 (Homo sapiens, UniProt P11169); experiment: [3H]2-DG uptake into LNCaP cells overexpressing GLUT3; format: cell-based; details: for inhibition at 5 µM: LNCaP cells transfected with GLUT3, 30 min
T2 construct: GLUT3 ORF cDNA was purchased from Origene Technologies; EGFP (from the pEGFP-N2 vector); host or cells: LNCaP
T2 sequence (P11169 1-496): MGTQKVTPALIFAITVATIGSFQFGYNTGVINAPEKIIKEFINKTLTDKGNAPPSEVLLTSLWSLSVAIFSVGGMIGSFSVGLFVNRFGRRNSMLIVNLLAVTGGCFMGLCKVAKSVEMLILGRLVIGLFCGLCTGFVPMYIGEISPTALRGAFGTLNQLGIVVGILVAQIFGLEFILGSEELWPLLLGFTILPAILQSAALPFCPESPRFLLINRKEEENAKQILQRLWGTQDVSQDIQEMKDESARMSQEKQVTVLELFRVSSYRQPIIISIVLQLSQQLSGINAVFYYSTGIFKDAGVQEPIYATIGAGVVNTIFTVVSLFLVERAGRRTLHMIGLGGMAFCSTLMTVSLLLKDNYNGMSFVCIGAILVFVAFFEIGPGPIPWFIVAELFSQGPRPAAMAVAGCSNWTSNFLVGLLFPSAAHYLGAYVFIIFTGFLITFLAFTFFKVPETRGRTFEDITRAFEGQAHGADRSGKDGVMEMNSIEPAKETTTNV
Description: as §1, §2
Plasmid Construction, Transient Transfection and Immunoblotting. The full length GLUT1, GLUT4, and GLUT9 ORF cDNA clones were purchased from Addgene (Cambridge, Mass.) and GLUT3 ORF cDNA was purchased from Origene Technologies (Rockville, Md.). GLUT1, GLUT3, and GLUT9 were subcloned into the HindIII/SalI sites and GLUT4 was subcloned into the EcoRI/SalI sites of pEGFP-N2 expression vector (Clontech, Palo Alto, Calif.). […]

[3] = tested on: LNCaP cells; experiment: MTT cell viability assay, LNCaP; format: cell-based, human; details: for IC50: 72 h, MTT, 10% FBS
Procedure: Cell Viability Assay. Cell viability was determined using the 3-(4,5-dimethylthiazol-2-yl)-2,5-diphenyltetrazolium bromide (MTT) assay. Cancer cells were seeded at 5000 cells/well and normal cells were seeded at 8000 cells/well in 96-well plates and incubated in 10% FBS-supplemented medium for 24 h. Cells were then treated with individual agents for 72 h. Drug-containing medium was replaced with medium containing MTT (0.5 mg/mL), followed by incubation at 37° C. for 1 h. After removal of medium, the reduced MTT dye in each well was solubilized in 100 μL of DMSO and absorbance at 570 nm was measured.
Compound 30 was evaluated for antiproliferative activity in panels of different human cancer cells lines, including those of prostate, breast and pancreatic cancers. In all experiments, cells were treated with a range of concentrations of Compound 30 in the presence of 10% fetal bovine serum (FBS). Cell viability was then determined after 72 h of treatment using the 3-(4,5-dimethylthiazol-2-yl)-2,5-diphenyltetrazolium bromide (MTT) assay. […] It is noteworthy that despite this high antiproliferative potency, normal human prostate epithelial cells (PrECs) were resistant to the cytotoxic effect of Compound 30 even at 10 μM.

CCC(CC)CN1C(=O)S/C(=C\c2ccc(O)c(C(F)(F)F)c2)C1=O [Compound 5]
IC50 [1]: 5 µM
inhibition at 5 µM [1]: 53%
inhibition at 5 µM [2]: 41%
IC50 ([3]; Homo sapiens, LNCaP): 4.2 µM

CC(CN1C(=O)S/C(=C\c2ccc(O)c(C(F)(F)F)c2)C1=O)(CC(F)(F)F)CC(F)(F)F [Compound 30, 5-(4-Hydroxy-3-trifluoromethyl-benzylidene)-3-[4,4,4-trifluoro-2-methyl-2-(2,2,2-trifluoro-ethyl)-butyl]-thiazolidine-2,4-dione]
IC50 [1]: 2 µM
inhibition at 5 µM [1]: 73%
IC50 ([2]; LNCaP cells overexpressing GLUT3, read-out: IC50 for GLUT3-mediated [3H]2-DG uptake): ≥ 5 µM
inhibition at 5 µM [2]: 48%
IC50 ([3]; Homo sapiens, LNCaP): 1.5 µM
IC50 [3]: 1.5 to 1.7 µM
improvement over compound 1 (IC50, [3H]-2DG uptake and viability of LNCaP cells) ([3]; relative to compound 1): 40 fold
